# Like-named read-outs stand apart in the source and are kept apart here. *1 amine or outer side, *2 acyl side, *3 side chain or, on linkers, in order; H or OH if unused. Where a SMILES comes first, the peptide text is derived from it. Bridges are numbered along the chain shown (N, C = ends). [ ]: non-standard residue; d: D form. The star is where a group is joined. X5 = NC(=O)[C@H](CCCCNC(=O)CN1CCN(CC(=O)O)CCN(CC(=O)O)CCN(CC(=O)O)CC1)NC(=O)CCC(=O)NCCCOCCOCCOCCCN*; X3 = O=C(O)CN1CCN(CC(=O)O)CCN(CC(=O)NCCCOCCOCCOCCCN*)CCN(CC(=O)O)CC1; DOTA = O=C(O)CN1CCN(CC(=O)O)CCN(CC(=O)*)CCN(CC(=O)O)CC1; Trp(5-Cl) = N[C@@H](Cc1c[nH]c2ccc(Cl)cc12)C(=O)O; Trp(5-OH) = N[C@@H](Cc1c[nH]c2ccc(O)cc12)C(=O)O; Pyridine(2,6-diCH2) = c1cc(C[*:1])nc(C[*:2])c1; X24 = OC[C@H](CSCc1cccc(C[*:1])n1)N[*:2]; Phe(2-Cl) = N[C@@H](Cc1ccccc1Cl)C(=O)O; mXylylene = c1cc(C[*:1])cc(C[*:2])c1; X7 = c1cc(CSCCN[*:2])cc(C[*:1])c1; Hyp = O=C(O)[C@@H]1C[C@@H](O)CN1; X15 = c1ncc(C[*:1])cc1CSCCN[*:2]; Suc = O=C(CCC(=O)[*:2])[*:1]; Thp = NC1(C(=O)O)CCOCC1; Aib = CC(C)(N)C(=O)O; Nlys = NCCCCNCC(=O)O; Sar = CNCC(=O)O
# Target: T1, GIPR (CHO-K1-hGIPR cells) (Homo sapiens, UniProt P48546)
# T1 construct: host or cells: CHO-K1
# T1 sequence (P48546 22-466): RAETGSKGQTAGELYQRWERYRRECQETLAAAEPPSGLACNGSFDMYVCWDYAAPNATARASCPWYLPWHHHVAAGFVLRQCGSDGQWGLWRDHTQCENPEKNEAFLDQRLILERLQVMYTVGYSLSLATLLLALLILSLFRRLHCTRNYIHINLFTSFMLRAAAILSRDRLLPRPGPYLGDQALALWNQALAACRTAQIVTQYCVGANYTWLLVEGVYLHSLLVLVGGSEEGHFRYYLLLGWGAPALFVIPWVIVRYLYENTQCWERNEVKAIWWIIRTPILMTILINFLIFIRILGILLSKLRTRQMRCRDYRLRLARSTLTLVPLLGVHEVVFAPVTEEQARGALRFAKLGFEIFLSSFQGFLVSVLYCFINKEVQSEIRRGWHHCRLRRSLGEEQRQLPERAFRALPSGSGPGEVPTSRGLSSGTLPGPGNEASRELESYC
# Test: FACS binding assay
# Conditions: read-out: pIC50 Category (converted)
# Procedure, shortened: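 Read-out: flow cytometric median fluorescence intensity, APC/Cy5 channel, plotted vs peptide conc.; 4PL fit → EC50/pEC50 or IC50/pIC50. Cells: CHO-K1-hGIPR, Accutase-detached, 500.000/mL in PBS + 1% FCS. Detection: APC-streptavidin 1 μg/mL, 30 min, on ice.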
# [1] = competition with 20 nM GIP-057, 4° C., 1 hour
# [2] = competition with 20 nM GIP-057, 4° C. for 1 hour
Compound,IC50 [1],IC50 [2]
"CC[C@H](C)[C@@H]1NC(=O)[C@H](CC(C)C)NC(=O)C2(CCOCC2)NC(=O)[C@@H](NC(=O)[C@@H](CC(C)C)NC(=O)[C@H](CCC(=O)O)NC(=O)[C@@H]2C[C@@H](O)CN2C(=O)[C@H](Cc2c[nH]c3ccc(Cl)cc23)NC(=O)[C@H](Cc2c[nH]c3ccccc23)NC(=O)[C@H](CC(=O)O)NC(=O)CCC(=O)NCCCOCCOCCOCCCNC(=O)CN2CCN(CC(=O)O)CCN(CC(=O)O)CCN(CC(=O)O)CC2)CSCc2cccc(n2)CSC[C@@H](C(=O)N[C@@H](CCCCNC(=O)CN2CCN(CC(=O)O)CCN(CC(=O)O)CCN(CC(=O)O)CC2)C(N)=O)NC1=O [GIP-054, DOTA-Ttds-Asp-Trp-5Clw-Hyp-Glu-leu-[Cys(2Lut)-Thp-Leu-Ile-Cys]-Lys(DOTA)-NH2] ({X3-Suc}-DW[Trp(5-Cl)][Hyp]E[dL]C[Thp]LICK(DOTA)-NH2; linker 7-11 via Pyridine(2,6-diCH2))",< 10 nM,
"CC[C@H](C)[C@@H]1NC(=O)[C@H](CC(C)C)NC(=O)C(C)(C)NC(=O)[C@@H](NC(=O)[C@@H](CC(C)C)NC(=O)[C@H](CCC(=O)O)NC(=O)[C@@H]2CCCN2C(=O)[C@H](Cc2c[nH]c3ccc(Cl)cc23)NC(=O)[C@H](Cc2c[nH]c3ccccc23)NC(=O)[C@H](CC(=O)O)NC(=O)CCC(=O)NCCCOCCOCCOCCCNC(=O)CN2CCN(CC(=O)O)CCN(CC(=O)O)CCN(CC(=O)O)CC2)CSCc2cncc(c2)CSCCNC1=O [GIP-091, DOTA-Ttds-Asp-Trp-5Clw-Pro-Glu-leu-[Cys(3Lut)-Aib-Leu-Ile-AET]] ({X3-Suc}-DW[Trp(5-Cl)]PE[dL]C[Aib]LI; linker 7-C via X15)",< 10 nM,
"CC[C@H](C)[C@@H]1NC(=O)[C@H](CC(C)C)NC(=O)C2(CCOCC2)NC(=O)[C@@H](NC(=O)[C@@H](CC(C)C)NC(=O)[C@H](CCC(=O)O)NC(=O)[C@@H]2C[C@@H](O)CN2C(=O)[C@H](Cc2c[nH]c3ccc(Cl)cc23)NC(=O)[C@H](Cc2c[nH]c3ccccc23)NC(=O)[C@H](CC(=O)O)NC(C)=O)CSCc2cccc(n2)CSC[C@@H](CO)NC1=O [GIP-182, Ac-Asp-Trp-5Clw-Hyp-Glu-leu-[Cys(2Lut)-Thp-Leu-Ile-Cysol]-OH] (Ac-DW[Trp(5-Cl)][Hyp]E[dL]C[Thp]LI; linker 7-C via X24)",< 10 nM,
"CC[C@H](C)[C@@H]1NC(=O)[C@H](CC(C)C)NC(=O)C2(CCOCC2)NC(=O)[C@@H](NC(=O)[C@@H](CC(C)C)NC(=O)[C@H](CCC(=O)O)NC(=O)CN(CCCCN)C(=O)[C@H](Cc2c[nH]c3ccc(Cl)cc23)NC(=O)[C@H](Cc2c[nH]c3ccccc23)NC(=O)[C@H](CC(=O)O)NC(C)=O)CSCc2cccc(n2)CSC[C@@H](C(N)=O)NC1=O [GIP-186, Ac-Asp-Trp-5Clw-Nlys-Glu-leu-[Cys(2Lut)-Thp-Leu-Ile-Cys]-NH2] (Ac-DW[Trp(5-Cl)][Nlys]E[dL]C[Thp]LIC-NH2; linker 7-11 via Pyridine(2,6-diCH2))",< 10 nM,
"CC[C@H](C)[C@@H]1NC(=O)[C@H](CC(C)C)NC(=O)C2(CCN(C(=O)CN3CCN(CC(=O)O)CCN(CC(=O)O)CCN(CC(=O)O)CC3)CC2)NC(=O)[C@@H](NC(=O)[C@@H](CC(C)C)NC(=O)[C@H](CCC(=O)O)NC(=O)[C@@H]2C[C@@H](O)CN2C(=O)[C@H](Cc2c[nH]c3ccc(Cl)cc23)NC(=O)[C@H](Cc2c[nH]c3ccccc23)NC(=O)[C@H](CC(=O)O)NC(=O)CN2CCC(NC(=O)CCCC(=O)NC[C@H](O)[C@@H](O)[C@H](O)[C@H](O)CO)CC2)CSCc2cccc(n2)CSC[C@@H](C(=O)N[C@H](CCCCNC(=O)CCOCCOCCOCCOCCOCCOCCOCCOCCOCCOCCOCCOCCOCCOCCOCCOCCOCCOCCOCCOCCOCCOCCOCCOCCOCCOCCOCCOCCOCCOCCOCCOCCOCCOCCOCCOCCOC)C(N)=O)NC1=O [GIP-039, AGLU-Glutar-APAc-Asp-Trp-5Clw-Hyp-Glu-leu-[Cys(2Lut)-Apc(DOTA)-Leu-Ile-Cys]-lys(MeO36PEG)-NH2]",10 to 79.4 nM,
"CC[C@H](C)[C@@H]1NC(=O)[C@H](CC(C)C)NC(=O)C(C)(C)NC(=O)[C@@H](NC(=O)[C@@H](CC(C)C)NC(=O)[C@H](CCC(=O)O)NC(=O)CN(C)C(=O)[C@H](Cc2c[nH]c3ccc(Cl)cc23)NC(=O)[C@H](Cc2c[nH]c3ccccc23)NC(=O)[C@H](CC(=O)O)NC(=O)CCC(=O)NCCCOCCOCCOCCCNC(=O)CN2CCN(CC(=O)O)CCN(CC(=O)O)CCN(CC(=O)O)CC2)CSCc2cccc(c2)CSCCNC1=O [GIP-100, DOTA-Ttds-Asp-Trp-5Clw-Nmg-Glu-leu-[Cys(3MeBn)-Aib-Leu-Ile-AET]] ({X3-Suc}-DW[Trp(5-Cl)][Sar]E[dL]C[Aib]LI; linker 7-C via X7)",< 10 nM,

# The remaining lines, values ahead:
IC50 [1],IC50 [2],Compound
< 10 nM,,"CC[C@H](C)[C@@H]1NC(=O)[C@H](CC(C)C)NC(=O)[C@H](Cc2ccccc2)NC(=O)[C@@H](NC(=O)[C@@H](CC(C)C)NC(=O)[C@H](CCC(=O)O)NC(=O)[C@@H]2C[C@@H](O)CN2C(=O)[C@H](Cc2c[nH]c3ccc(Cl)cc23)NC(=O)[C@H](Cc2c[nH]c3ccccc23)NC(=O)[C@H](CC(=O)O)NC(C)=O)CSCc2cccc(n2)CSC[C@@H](C(N)=O)NC1=O [GIP-228, Ac-Asp-Trp-5Clw-Hyp-Glu-leu-[Cys(2Lut)-Phe-Leu-Ile-Cys]-NH2] (Ac-DW[Trp(5-Cl)][Hyp]E[dL]CFLIC-NH2; linker 7-11 via Pyridine(2,6-diCH2))"
,> 1000 nM,"CC[C@H](C)[C@@H]1NC(=O)[C@H](CC(C)C)NC(=O)C(C)(C)NC(=O)[C@@H](NC(=O)[C@@H](CC(C)C)NC(=O)[C@H](CCC(=O)O)NC(=O)[C@@H]2CCCN2C(=O)[C@H](Cc2c[nH]c3ccc(O)cc23)NC(=O)[C@H](Cc2c[nH]c3ccccc23)NC(=O)[C@H](CC(=O)O)NC(C)=O)CSCc2cccc(c2)CSC[C@@H](C(=O)NCCCOCCOCCOCCCNC(=O)CCC(=O)N[C@@H](CCCCNC(=O)CN2CCN(CC(=O)O)CCN(CC(=O)O)CCN(CC(=O)O)CC2)C(N)=O)NC1=O [GIP-302, Ac-Asp-Trp-Hyw-Pro-Glu-leu-[Cys(3MeBn)-Aib-Leu-Ile-Cys]-Ttds-Lys(DOTA)-NH2] (Ac-DW[Trp(5-OH)]PE[dL]C[Aib]LIC-X5; linker 7-11 via mXylylene)"
< 10 nM,,"CC[C@H](C)[C@@H]1NC(=O)[C@H](Cc2c[nH]c3ccccc23)NC(=O)C2(CCOCC2)NC(=O)[C@@H](NC(=O)[C@@H](CC(C)C)NC(=O)[C@H](CCC(=O)O)NC(=O)[C@@H]2C[C@@H](O)CN2C(=O)[C@H](Cc2c[nH]c3ccc(Cl)cc23)NC(=O)[C@H](Cc2c[nH]c3ccccc23)NC(=O)[C@H](CC(=O)O)NC(C)=O)CSCc2cccc(n2)CSC[C@@H](C(N)=O)NC1=O [GIP-233, Ac-Asp-Trp-5Clw-Hyp-Glu-leu-[Cys(2Lut)-Thp-Trp-Ile-Cys]-NH2] (Ac-DW[Trp(5-Cl)][Hyp]E[dL]C[Thp]WIC-NH2; linker 7-11 via Pyridine(2,6-diCH2))"
,> 1000 nM,CSCC[C@H](N)C(=O)N[C@@H](Cc1ccc(O)cc1)C(=O)N[C@@H](CC(=O)O)C(=O)N[C@@H](Cc1c[nH]c2ccccc12)C(=O)N[C@@H](Cc1c[nH]c2ccccc12)C(=O)N1CCC[C@H]1C(=O)N[C@@H](CCC(=O)O)C(=O)N[C@@H](CC(C)C)C(=O)N[C@H]1CSCc2cccc(c2)CSC[C@@H](C(N)=O)NC(=O)[C@H](C)NC(=O)[C@H](CC(C)C)NC(=O)[C@H](C)NC1=O [GIP-337] (H-MYDWWPELCALAC-NH2; linker 9-13 via mXylylene)
,10 to 79.4 nM,"CC[C@H](C)[C@@H]1NC(=O)[C@H](CC(C)C)NC(=O)C2(CCOCC2)NC(=O)[C@@H](NC(=O)[C@@H](CC(C)C)NC(=O)[C@H](CCC(=O)O)NC(=O)[C@@H]2C[C@@H](O)CN2C(=O)[C@H](Cc2c[nH]c3ccc(Cl)cc23)NC(=O)[C@H](Cc2ccccc2Cl)NC(=O)[C@H](CC(=O)O)NC(=O)CCC(=O)NCCCOCCOCCOCCCNC(=O)CN2CCN(CC(=O)O)CCN(CC(=O)O)CCN(CC(=O)O)CC2)CSCc2cccc(n2)CSC[C@@H](C(N)=O)NC1=O [GIP-387, DOTA-Ttds-Asp-Ocf-5Clw-Hyp-Glu-leu-[Cys(2Lut)-Thp-Leu-Ile-Cys]-NH2] ({X3-Suc}-D[Phe(2-Cl)][Trp(5-Cl)][Hyp]E[dL]C[Thp]LIC-NH2; linker 7-11 via Pyridine(2,6-diCH2))"
,10 to 79.4 nM,"CC[C@H](C)[C@@H]1NC(=O)[C@H](CC(C)C)NC(=O)C(C)(C)NC(=O)[C@@H](NC(=O)[C@@H](CC(C)C)NC(=O)[C@H](CCC(=O)O)NC(=O)[C@@H]2CCCN2C(=O)[C@H](Cc2c[nH]c3ccccc23)NC(=O)[C@H](Cc2c[nH]c3ccccc23)NC(=O)CCC(=O)O)CSCc2cccc(c2)CSC[C@@H](C(N)=O)NC1=O [GIP-258, HO-Succinyl-Trp-Trp-Pro-Glu-leu-[Cys(3MeBn)-Aib-Leu-Ile-Cys]-NH2] (Suc-WWPE[dL]C[Aib]LIC-NH2; linker 6-10 via mXylylene)"
10 to 79.4 nM,,CC[C@H](C)[C@@H]1NC(=O)[C@H](CC(C)C)NC(=O)[C@H](CCCCN)NC(=O)[C@@H](NC(=O)[C@H](CC(C)C)NC(=O)[C@H](CCC(=O)O)NC(=O)[C@@H]2CCCN2C(=O)[C@H](Cc2c[nH]c3ccccc23)NC(=O)[C@H](Cc2c[nH]c3ccccc23)NC(=O)[C@H](CC(=O)O)NC(=O)[C@H](Cc2ccc(O)cc2)NC(=O)[C@@H](N)CCSC)CSCc2cccc(c2)CSC[C@@H](C(N)=O)NC1=O [GIP-243] (H-MYDWWPELCKLIC-NH2; linker 9-13 via mXylylene)

# Reference: patent US20250296971A1, “GASTRIC INHIBITORY PEPTIDE RECEPTOR LIGANDS” (priority 2021, published 2025)
